According to PubChem BioAssay (NCI):
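Compound exposure: 48 hours, 5 concentrations, 96-well plates. TGI: total growth inhibition.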

How the values were obtained:
Assay in all cases: DTP human tumour cell line panel, 48 h
UO-31 renal = test system: UO-31 renal
CCRF-CEM leukemia = test system: CCRF-CEM leukemia
HL-60(TB) leukemia = test system: HL-60(TB) leukemia
SF-268 CNS = test system: SF-268 CNS
MDA-N = test system: MDA-N
OVCAR-3 ovarian = test system: OVCAR-3 ovarian
SW-620 colon = test system: SW-620 colon
EKVX NSCLC = test system: EKVX NSCLC
IGROV1 ovarian = test system: IGROV1 ovarian
HT29 colon = test system: HT29 colon
ACHN renal = test system: ACHN renal
NCI-H460 lung = test system: NCI-H460 lung
NCI-H522 lung = test system: NCI-H522 lung
SF-295 CNS = test system: SF-295 CNS
LOX IMVI melanoma = test system: LOX IMVI melanoma
HCT-116 colon = test system: HCT-116 colon
NCI-H226 lung = test system: NCI-H226 lung
OVCAR-5 ovarian = test system: OVCAR-5 ovarian
SNB-19 CNS = test system: SNB-19 CNS
BT-549 breast = test system: BT-549 breast
HOP-92 NSCLC = test system: HOP-92 NSCLC
HCT-15 colon = test system: HCT-15 colon
KM12 colon = test system: KM12 colon
NCI-H23 lung = test system: NCI-H23 lung
COLO 205 colon = test system: COLO 205 colon
MDA-MB-435 = test system: MDA-MB-435
UACC-62 melanoma = test system: UACC-62 melanoma
MDA-MB-231 breast = test system: MDA-MB-231 breast
SK-OV-3 ovarian = test system: SK-OV-3 ovarian
MALME-3M melanoma = test system: MALME-3M melanoma
A549 NSCLC = test system: A549 NSCLC
SNB-75 CNS = test system: SNB-75 CNS
DU-145 prostate = test system: DU-145 prostate
OVCAR-8 ovarian = test system: OVCAR-8 ovarian
TK-10 renal = test system: TK-10 renal
UACC-257 melanoma = test system: UACC-257 melanoma
A498 renal = test system: A498 renal
HOP-62 NSCLC = test system: HOP-62 NSCLC
SR leukemia = test system: SR leukemia
MOLT-4 leukemia = test system: MOLT-4 leukemia
RXF 393 renal = test system: RXF 393 renal
K-562 leukemia = test system: K-562 leukemia
OVCAR-4 ovarian = test system: OVCAR-4 ovarian
PC-3 prostate = test system: PC-3 prostate
M14 melanoma = test system: M14 melanoma
SF-539 CNS = test system: SF-539 CNS
MCF7 breast = test system: MCF7 breast
HCC-2998 colon = test system: HCC-2998 colon
U251 CNS = test system: U251 CNS
T-47D breast = test system: T-47D breast
CAKI-1 renal = test system: CAKI-1 renal
SN12C renal = test system: SN12C renal
SK-MEL-28 melanoma = test system: SK-MEL-28 melanoma
786-0 renal = test system: 786-0 renal

Measured: TGI

Cc1ccc2c(c1)CC1(C2=O)[C@H](c2ccccc2)C2C(=O)c3ccc(C)cc3C2[C@H]1c1ccccc1 (some centres undefined)
> 100 µM: all assays above
